Patent US11229643B2, “Combinations of FGFR4 inhibitors and bile acid sequestrants” (NOVARTIS AG, priority 2016, dated 2022)

How the values were obtained:
[1] = Dog cross-over study: plasma miR-122 levels (Taqman, standard curve method); assay type: in vivo, Beagle dogs
Experimental: Plasma miR-122 levels, a liver enriched microRNA used as biomarker of liver injury (Starkey Lewis P J et al., Clin Pharmacol Ther, 2012, 291-293), were determined. miR-122 is considered as a liver-specific marker.
Small RNA was extracted from 50 μl of plasma by using the miRNeasy/MinElute kit and following the instructions of the manufacturer (Qiagen). Elution of small RNA was realized in 14 μl of nucleic acid-free H2O.
3.2 μl of eluted small RNA was reverse transcribed into cDNA by using the Megaplex RT primer human pool A and B and the Taqman MicorRNA Reverse Transcription kit (Applied Biosystems/Life Technologies, reference 4366596) and following the instructions of the manufacturer.
2.5 μl of cDNA was preamplified by using the Megaplex Preamp primer human pool A and B (Applied Biosystems/Life Technologies, reference 4399201 and 4399233) and the Taqman PreAmp Master mix (Applied Biosystems/Life Technologies, reference 4391128) and following the instructions of the manufacturer.
microRNA miR-122 was amplified from preamplified cDNA by using a commercially available validated Taqman assay (reference 002245) diluted in the Taqman MasterMixII (Applied Biosystems/Life Technologies) and following the instructions of the manufacturer.
The relative quantification of plasmatic microRNA levels was performed using the standard curve method to generate expression values as number of molecules.
Statistical significance of mRNA measurements was assessed using the two-sample unequal variance, two-tailed distribution (hetero-scedastic Student's t-test, Excel). Coefficients of variation with a P value <0.05 were considered to be statistically significant.

456 kinases = conditions: cited from earlier work
advanced HCC = conditions: patients with advanced HCC; cited from earlier work
[2] = Dog cross-over study of Compound A with or without cholestyramine: serum ALT activity; assay type: in vivo, Beagle dogs; conditions: Cpd A 5 mg/kg/day
Experimental: Male Beagle dogs were obtained from Marshall BioResources (North Rose, N.Y.). For the study, all animals were nave to treatment. All animals used in the study were healthy and suitable for use. The dose volume for Cpd A and its vehicle was 5 mL/kg. For CHO, the dosing aliquot was dispersed in 75 mL total animal drinking water.
For the study, a dosing paradigm was followed with initial loading dose of either vehicle or CHO on the last day of pretest (day −1), and dosing of either vehicle or CHO on days 1-7.
N-(5-cyano-4-((2-methoxyethyl)amino)pyridin-2-yl)-7-formyl-6-((4-methyl-2-oxopiperazin-1-yl)methyl)-3,4-dihydro-1,8-naphthyridine-1(2H)-carboxamide dosing was initiated on day 8, with the second dosing event of each day for either vehicle or CHO. Food was presented to the animals after the second daily dosing event. Animals were not dosed on day 15. Dosing was restarted on day 24 and the dose groups crossed over on day 38-44, with the last day of dosing on day 44.
Clinical observations, twice-weekly body weights, and daily food consumption determinations were performed.
Fecal samples were collected for bile acid (BA) analysis once during pretest and on days 7, 10, 14, 17, 24, 28, 35, 42, and 49.
Plasma was collected from all animals for bile acid profiling during the study, concurrent with clinical pathology and/or toxicokinetic sampling as follows: at approximately 3 hours postdose (post vehicle, CHO or Cpd A, as appropriate) on days 1, 3, 7, 8, 11, 14, 15, 18, 21, 23, 25, 28, 31, 35, 38, 42, 45, 49, and 52. On days 8, 14, 25, and 39 only, samples were collected at predose and approximately 0.5, 1, 3, 7, and 24 hours postdose (post Cpd A dosing). In addition, on day 44, bile acid biomarker samples were collected at 3, 7, and 24 hours postdose (concurrent with the last toxicokinetic blood collection).

[3] = 4-week dog study, ALT and AST; assay type: in vivo
Excerpt: The maximal increase was 6-fold and ≤2-fold for ALT and AST respectively (relative to pre-dose values), and occurred during week 2 of the study. Generally, there was no further increase in transaminase levels despite continued dosing over the 4-weeks indicating a level of adaptation to these pharmacologically mediated effects.

[4] = relative to pre-dose values, during week 2 of 4-week dog study

- increase in miR-122 levels, maximum average ([1]; recovery period study day 15-23, at day 21, compared with study day 1-7): ≤ 5.4 fold
- increase in miR-122 levels, peak ([1]; recovery study days 45-52, Group 1 animal 1001, day 49): ≤ 22.2 fold
- increase in miR-122 levels, peak ([1]; recovery study days 45-52, Group 1 animal 1003, day 49): ≤ 47.9 fold
- increase in miR-122 levels, peak ([1]; recovery study days 45-52, Group 1 animal 1005, day 49): ≤ 16.4 fold
- increase in miR-122 levels, peak ([1]; recovery study days 45-52, Group 1 animal 1006, day 49): ≤ 40.1 fold
- change in miR122 compared to respective controls, overall ([1]; some animals): minimal to moderate increases
- increase in miR-122 levels, maximum average ([1]; study day 8-14, at day 14, compared with study day 1-7): ≤ 2.5 fold
- increase in miR-122 levels, maximum ([1]; study days 25-38, animal 2003, at day 38): ≤ 151 fold
- increase in miR-122 levels, maximum average ([1]; study days 25-38, animal 2006, at day 31): ≤ 63 fold
- increase in miR-122 levels, average ([1]; study days 39-42, following the second cross-over): ≤ 7.8 fold
SMILES: COCCNc1cc(NC(=O)N2CCCc3cc(CN4CCN(C)CC4=O)c(C=O)nc32)ncc1C#N [Compound A, N-(5-cyano-4-((2-methoxyethyl)amino)pyridin-2-yl)-7-formyl-6-((4-methyl-2-oxopiperazin-1-yl)methyl)-3,4-dihydro-1,8-naphthyridine-1(2H)-carboxamide]
- targets found in kinome wide scan (456 kinases): FGFR4 was the only target
- clinical activity (advanced HCC): promising clinical activity
- increase in serum ALT activity ([2]; compared with pretest, first dosing period (from day 8)): 3.5 fold
- change in serum ALT activity, in general ([2]; dogs): minimal to moderate increases
- increase in serum ALT activity ([2]; following the first cross-over): 6 fold
- increase in serum ALT activity ([2]; following the second cross-over): 3.5 fold
- recovery of ALT/AST increases evident ([3]; day following cessation of Compound A administration): ≤ 8 days
- maximal increase in ALT [3, 4]: 6 fold
- maximal increase in AST [3, 4]: ≤ 2 fold
